Results taken from patent US8263642B2, “Antimicrobial compounds and methods of use thereof” (Vanderbilt University, priority 2008, dated 2012).

Key:
Stern = experiment: Heme adaptation, Stern test; type: cell-based
Method: (§1) Methods for obtaining the data shown in Tables 1 and 2 are described herein.
(§2) With reference to Table 1, “Luminescence” refers to the raw luminescence value obtained in a luminomter. “Control (82.5 nm)” refers to the luminescence value obtained from heme at 82.5 nM as a positive control in the same plate as the experimental. “% lum” is the percentage of luminescence induced by the compound as compared to the heme control in the same plate. […] All of these assays are described in the application. […] “N/T” indicates the test was not performed.

response regulator HssR [1] = experiment: HssR dependence, Stern test; type: cell-based
Method: as §1, §2

[2] = tested on: HssRS-dependent hrtAB expression; experiment: Luminescence-based assay to monitor HssRS-dependent hrtAB expression (phrtABlux reporter), Newman; type: cell-based, Staphylococcus aureus; details: for activation at 0.0825 µM: Staphylococcus aureus, NEWMAN, read-out: % Lumi, luminescence induced by the compound compared to the heme control (82.5 nM) in the same plate; for activation at 0.0825 µM / Luminescence: Newman; for Luminescence: raw luminescence value obtained in a luminometer
In short: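 S. aureus Newman wild type or ΔhssR carrying a hrtAB promoter–luxCDABE reporter (phrtABlux), grown in TSB with 10 μg/ml chloramphenicol at 37 °C. Light output read against 82.5 nM heme as the in-plate positive control. Activity given as % of heme-induced luminescence.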

response regulator HssR [3] = experiment: HssR dependence of XylE inducing activity, Newman; type: cell-based, Staphylococcus aureus; details: whether XylE inducing activity requires HssR
Method: With reference to Table 1, “Luminescence” refers to the raw luminescence value obtained in a luminomter. “Control (82.5 nm)” refers to the luminescence value obtained from heme at 82.5 nM as a positive control in the same plate as the experimental. “% lum” is the percentage of luminescence induced by the compound as compared to the heme control in the same plate. […] All of these assays are described in the application. […] “N/T” indicates the test was not performed. […]
S. aureus strains harboring the appropriate reporter construct were inoculated into 500 μl of TSB containing 10 μg/ml chloramphenicol in 1.5 ml tubes. Cultures were grown O/N at 37° C. with shaking. Bacteria were pelleted by centrifugation and spent medium was aspirated. The pellet was washed once with 500 μl of 20 mM potassium phosphate, pH 7.6, and resuspended in 150 μl of 100 mM potassium phosphate buffer, pH 8.0, 10% (v/v) acetone, 25 μg/ml lysostaphin. After 20 minute incubation at 37° C. and 5 minute incubation on ice, samples were centrifuged at 20,000 g for 30 minutes at 4° C. 1-10 μl of supernatant was added to a 96-well plate and 200 μl of 100 mM potassium phosphate, pH 8.0, 0.2 mM pyrocatechol was added to each well. Formation of 2-hydroxymuconic semialdehyde was tracked by measuring the absorbance at 375 nm every minute for 30 minutes on a Varian MP 50 microplate reader. Protein concentration in samples was determined by BCA (Pierce). One unit of specific activity of XylE in a sample is defined as the formation of 1 nmol of 2-hydroxymuconic semialdehyde per minute per milligram of cellular protein at 30° C. (Chien, Y., Manna, A. C., Projan, S. J., and Cheung, A. L. 1999, “SarA, a global regulator of virulence determinants in Staphylococcus aureus, binds to a conserved motif essential for sar-dependent gene regulation. J. Biol. Chem. 274, 37169-37176).

[4] = tested on: hrtAB-driven expression of the xylE reporter gene; experiment: XylE reporter assay (hrtAB promoter-xylE), Newman; type: cell-based, Staphylococcus aureus; details: for XylE (0.05): level of XylE induction at 0.05 uM of the compound; for XylE (0.5): level of XylE induction at 0.5 uM of the compound; for XylE (5.0): level of XylE induction at 5.0 uM of the compound; for XylE (50.0): level of XylE induction at 50.0 uM of the compound
In short: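 S. aureus carrying hrtAB promoter-xylE fusion in pOS1 grown O/N at 37° C in TSB with chloramphenicol, lysed with lysostaphin. Lysate XylE activity read as 2-hydroxymuconic semialdehyde formation from 0.2 mM pyrocatechol (A375, every minute for 30 minutes), normalised to BCA protein; unit = 1 nmol/min/mg at 30° C.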

[5] = Solubility of heme in solution; type: physicochemical; details: concentrations above this are insoluble

Row | SMILES | Heme Adapt (Stern) | HssR Dep (response regulator HssR [1]) | activation at 0.0825 µM [2] [%] | Luminescence [2] | HssR Dep (response regulator HssR [3]) | XylE (0.05) [4] | XylE (0.5) [4] | XylE (5.0) [4] | XylE (50.0) [4] | light production on solid medium ([2]; S. aureus containing phrtABlux, solid medium without or with 4 μM heme) | luminescence in liquid media ([2]; S. aureus wildtype containing phrtABlux, liquid media with or without heme) | increase in luminescence ([2]; exposure of S. aureus to 3 μM heme, preliminary results) [fold] | increase in luminescence over negative control strains ([2]; heme-exposed wildtype harboring phrtABlux vs wildtype plux and ΔhssR phrtABlux, preliminary results) [fold] | soluble concentration in solution [5] [µM]
1 | CC(NC(=O)C1(c2ccccc2)CCCC1)C1COc2ccccc2O1 (stereo not shown) [drawing 132] | + | + |  |  |  |  |  |  |  |  |  |  |  | 
2 | O=C(Nc1ccc(NC(=O)c2cccs2)c(Cl)c1)c1cccs1 |  |  | 111 | 406 | − | 0.05 | 0.05 | 0.9 | 0.06 |  |  |  |  | 
3 | O=C(O)C1CSC(c2cccnc2)=N1 (stereo not shown) |  |  |  | 2360 | − | 1 | 1 | 1 | 3 |  |  |  |  | 
4 | Brc1ccc(-c2nc(NCc3ccccc3)c3ccccc3n2)cc1 |  |  |  | 4302 | − | 1 | 1 | 0.5 | 0.2 |  |  |  |  | 
5 | O=C(N/N=C/c1ccc(-c2cccc(C(F)(F)F)c2)o1)C1COc2ccccc2O1 (stereo not shown) [drawing 134] | − | − |  |  |  |  |  |  |  |  |  |  |  | 
6 | COc1ccccc1NC1=C/C(=N\S(=O)(=O)c2ccc(Br)cc2)c2ccccc2C1=O [drawing 136] | + | + |  |  |  |  |  |  |  |  |  |  |  | 
7 | O=C(N/N=C/c1ccc(-c2ccc(Br)cc2)o1)C1COc2ccccc2O1 (stereo not shown) [drawing 133] | + | + |  |  |  |  |  |  |  |  |  |  |  | 
8 | COc1ccc(CCNC(=O)C(=O)Nc2cccc(Cl)c2)cc1OC |  |  | 355 | 2830 | − | 1 | 0.5 | 0.8 | 5 |  |  |  |  | 
9 | C=CC1=C(C)c2cc3[n-]c(cc4[n-]c(cc5nc(cc1n2)C(C)=C5C=C)c(C)c4CCC(=O)O)c(CCC(=O)O)c3C.[Fe+2] [heme, reference compound] |  |  |  |  |  |  |  |  |  | generated light exclusively upon heme exposure | robust luminescence | 100 | 100 | ≤ 30
10 | Cc1ccc(NS(=O)(=O)c2ccc3c(c2)Cc2cc(S(=O)(=O)Nc4ccc(C)cc4)ccc2-3)cc1 [drawing 135] | + | + |  |  |  |  |  |  |  |  |  |  |  | 
11 | CCOC(=O)c1c(NC(=O)c2ccccc2)sc(C(C)=O)c1-c1ccccc1 |  |  | 109 | 312 | − | 0.03 | 1 | 0.3 | 0.08 |  |  |  |  | 
12 | c1ccc(-c2ccc(CSc3nc4ccccc4[nH]3)cc2)cc1 |  |  |  | 1822 | + |  | 0.03 | 0.08 | 11 |  |  |  |  | 
13 | CCCN1C(=O)/C(=C2/C(=O)N(CC(=O)Nc3ccc(Cl)cc3)c3ccccc32)SC1=S [drawing 28] |  |  |  | 1600 | − | 1 | 0.06 | 0.07 | 0.02 |  |  |  |  | 
14 | Cc1ccc(-c2nnc(SCC(=O)NC3CCCC3)nc2-c2ccc(C)cc2)cc1 |  |  | 855 | 1658 | − |  | 1 | 0.5 | 0.04 |  |  |  |  | 
15 | CC1=NN(c2ccccc2)C(=O)/C1=N\Nc1ccccc1O |  |  | 60.3 | 1848 | − | 0.07 | 0.05 | 0.2 | 1 |  |  |  |  | 
16 | Cc1ccc(CSCc2ccc(C(=O)NCc3ccc(F)cc3)o2)cc1 |  |  | 198 | 1653 | + |  | 0 | 3 | 5 |  |  |  |  | 
17 | COC(NC(=O)Nc1nc2ccccc2s1)(C(F)(F)F)C(F)(F)F |  |  | 280 | 1747 | − |  | 4 | 0.04 | 7 |  |  |  |  | 
18 | CC(C)CSc1nnc(-c2ccccc2)c(-c2ccccc2)n1 |  |  | 383 | 1706 | + |  | 0.04 | 0.07 | 1 |  |  |  |  | 
19 | COc1ccc(Br)cc1C(=O)NC(=S)Nc1cc(C)c(C)cc1O [drawing 24] |  |  | 227 | 946 |  | 0.07 | 0.3 | 0.09 | 0.3 |  |  |  |  | 
20 | O=c1c2ccccc2nc(/C=C\c2ccccc2Cl)n1-c1ccccc1O |  |  |  | 6843 | + | 0.08 | 1 | 50 | 1 |  |  |  |  | 
21 | Cc1c(-c2ccccc2)nc2ccccc2c1C(=O)Nc1ccccc1C(F)(F)F |  |  |  | 2424 |  | 0.5 | 0.7 | 0.03 | 0.02 |  |  |  |  | 
22 | CSc1ccc(NC=C2C(=O)CC(C)(C)CC2=O)cc1 |  |  | 161 | 1347 |  | 0.04 | 0.05 | 0.01 | 1 |  |  |  |  | 
23 | Oc1c(-c2cc(-c3ccco3)[nH]n2)ccc2ccccc12 [drawing 131] | − | − |  |  |  |  |  |  |  |  |  |  |  | 
24 | O=S(=O)(Nc1cc(Cl)ccc1Cl)c1ccc(Cl)cc1 |  |  | 146 | 618 |  | 0.02 | 0.07 | 0.5 | 0.1 |  |  |  |  | 
25 | CC(C)(C)c1cc2c(c(C(C)(C)C)c1)OC(c1cc([N+](=O)[O-])ccc1O)N2 (stereo not shown) |  |  |  | 1805 |  |  | 0.04 | 0 | 0.04 |  |  |  |  | 
26 | Cc1nc(Nc2ccc(Oc3ccccc3)cc2)c2c(C)c(C)sc2n1 |  |  |  | 1627 | − |  | 0.6 | 0.09 | 0 |  |  |  |  | 
27 | Oc1ccc(CCNC2CCCc3c2[nH]c2ccc(-c4ccccc4)cc32)cc1 (stereo not shown) |  |  | 127 | 534 |  | 0.06 | 0.02 | 1 | 1 |  |  |  |  | 
